Experimental data as given in ChEMBL document CHEMBL1201862, “PubChem BioAssay data set” (2004).
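96-well plates; 48 h exposure; 5 concentrations. Endpoints by linear interpolation between flanking doses. Not reached: highest tested concentration assigned. GI50 = concentration required for 50% inhibition of growth.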 The source made the active and inactive calls. No stated cut-off is given here; in the data, active = GI50 up to about 1.1 µM and inactive = higher.

Columns and labels:
Experiment in all cases: growth of human tumour cells (NCI), 48 h
SNB-19 = system: SNB-19
NCI-H226 = system: NCI-H226
RXF 393 = system: RXF 393
HCT-15 = system: HCT-15
OVCAR-5 = system: OVCAR-5
LOX IMVI = system: LOX IMVI
SF-539 = system: SF-539
ACHN = system: ACHN
SK-MEL-5 = system: SK-MEL-5
OVCAR-3 = system: OVCAR-3
M14 = system: M14
OVCAR-4 = system: OVCAR-4
HT-29 = system: HT-29
SK-OV-3 = system: SK-OV-3
SK-MEL-2 = system: SK-MEL-2
SK-MEL-28 = system: SK-MEL-28
HCT-116 = system: HCT-116
HOP-62 = system: HOP-62

| SMILES | GI50 (SNB-19) | GI50 (NCI-H226) | GI50 (RXF 393) | GI50 (HCT-15) [µM] | GI50 (OVCAR-5) | GI50 (LOX IMVI) | GI50 (SF-539) | GI50 (ACHN) | GI50 (SK-MEL-5) | GI50 (OVCAR-3) | GI50 (M14) | GI50 (OVCAR-4) | GI50 (HT-29) | GI50 (SK-OV-3) | GI50 (SK-MEL-2) | GI50 (SK-MEL-28) | GI50 (HCT-116) | GI50 (HOP-62) |
| --- | --- | --- | --- | --- | --- | --- | --- | --- | --- | --- | --- | --- | --- | --- | --- | --- | --- | --- |
| CC1C[C@]2(C[C@@H](C)C(=O)O2)O[C@@H]2CC3(C)[C@@H]4CCC5C(C)(C)OC(=O)C[C@H]6OO[C@]4(CC[C@]3(C)C12)CC56O (some centres not stated) | > 100 µM (inactive) | > 100 µM (inactive) | > 100 µM (inactive) | > 100 | > 100 µM (inactive) | > 100 µM (inactive) | > 100 µM (inactive) | > 100 µM (inactive) | > 100 µM (inactive) | > 100 µM (inactive) | > 100 µM (inactive) | > 100 µM (inactive) | > 100 µM (inactive) | > 100 µM (inactive) | > 100 µM (inactive) | > 100 µM (inactive) | – | – |
| Cc1nc(Nc2ccc(Cl)cc2)sc1C(=O)Nc1cccc2c(=O)[nH][nH]c(=O)c12 | 43.3 µM (inactive) | 83.6 µM (inactive) | 28.6 µM (inactive) | 21.8 | 36.9 µM (inactive) | 13.6 µM (inactive) | 36.7 µM (inactive) | 20.9 µM (inactive) | 2.52 µM (inactive) | 18.9 µM (inactive) | 17.6 µM (inactive) | 49.4 µM (inactive) | 16.8 µM (inactive) | 52.6 µM (inactive) | 30.4 µM (inactive) | 52.4 µM (inactive) | 24 µM (inactive) | 35.6 µM (inactive) |
| CC1=C(C(=O)Nc2ccc([N+](=O)[O-])cc2)C(c2ccccc2F)C(C(=O)Nc2ccc([N+](=O)[O-])cc2)=C(C)N1 | 21.1 µM (inactive) | 14 µM (inactive) | 6.75 µM (inactive) | – | 35.1 µM (inactive) | 11 µM (inactive) | 17.3 µM (inactive) | 4.21 µM (inactive) | 13.9 µM (inactive) | 8.32 µM (inactive) | 15.1 µM (inactive) | 9.14 µM (inactive) | 20.1 µM (inactive) | 29.8 µM (inactive) | 9.31 µM (inactive) | 20.7 µM (inactive) | 5.13 µM (inactive) | 15 µM (inactive) |
| O=C1OC(=O)c2c1c(-c1ccccc1)nc1ccccc21 | > 100 µM (inactive) | > 100 µM (inactive) | > 100 µM (inactive) | > 100 | – | > 100 µM (inactive) | > 100 µM (inactive) | – | > 100 µM (inactive) | > 100 µM (inactive) | > 100 µM (inactive) | – | > 100 µM (inactive) | > 100 µM (inactive) | > 100 µM (inactive) | > 100 µM (inactive) | > 100 µM (inactive) | > 100 µM (inactive) |
| CCC1CN2CCc3cc(OC)c(OC)cc3C2CC1CC1c2cc(OC)c(OC)cc2CCN1C(=O)CNC(=O)OC(C)(C)C (configuration not stated) | 13.9 µM (inactive) | 18.3 µM (inactive) | 17.5 µM (inactive) | 12.3 | 24.3 µM (inactive) | 4.48 µM (inactive) | – | 21.5 µM (inactive) | 6 µM (inactive) | 11.9 µM (inactive) | > 10 µM (inactive) | 2.88 µM (inactive) | 3.49 µM (inactive) | 28.6 µM (inactive) | 12.4 µM (inactive) | 23.8 µM (inactive) | – | – |
| Cc1cccc2c1Sc1ccccc1C2NC(=O)CCN(C)C (configuration not stated) | > 100 µM (inactive) | > 100 µM (inactive) | > 100 µM (inactive) | > 100 | > 100 µM (inactive) | > 100 µM (inactive) | > 100 µM (inactive) | > 100 µM (inactive) | > 100 µM (inactive) | – | > 100 µM (inactive) | > 100 µM (inactive) | > 100 µM (inactive) | > 100 µM (inactive) | – | > 100 µM (inactive) | > 100 µM (inactive) | > 100 µM (inactive) |
